# Legend:
# [1] = test system: BRD pathogens, M. haemolytica and P. multocida; assay: MIC screening panel of BRD pathogens (antibacterial / non-antibacterial); details: read-out: antibacterial / non-antibacterial (MIC for the BRD pathogens)
# [2] = test system: TNF-α; assay: LPS-stimulated whole bovine blood assay, MSD cytokine detection; assay type: cell-based; details: Bos taurus, LPS-stimulated bovine whole blood; read-out: TNF-α (IC50 μM)
# [3] = test system: IL-1β; assay: as above; assay type: cell-based; details: overstimulation of IL-1β, LPS-stimulated bovine whole blood
# [4] = test system: IL-6; assay: as above; assay type: cell-based; details: Bos taurus, LPS-stimulated bovine whole blood; read-out: IL-6 (IC50 μM)
# Source text: In order to correlate RNA sequencing data to cytokine changes the whole blood assay was utilized. […] The enhancement result represents an overall stimulation of cytokine levels due to cellular stress or potential toxicity with increasing concentrations of the compound, representing a typical bell shape response curve for immunomodulatory activity.
SMILES,IC50 [2] [µM],IC50 [4] [µM],MIC [1] [µg/mL],IL-1β OS of LPS [3] [µM]
"CCCNC[C@]1(O)[C@H](C)O[C@@H](O[C@H]2[C@H](C)[C@@H](O[C@@H]3O[C@H](C)C[C@H](N(C)C(=O)N(C)c4ncc(Cl)cn4)[C@H]3O)[C@](C)(O)C[C@@H](C)CN[C@H](C)[C@@H](O)[C@](C)(O)[C@@H](CC)OC(=O)[C@@H]2C)C[C@@]1(C)OC [Example H-51, 1-(5-chloropyrimidin-2-yl)-3-((2S,3R,4S,6R)-2-(((2R,3S,4R,5R,8R,10R,11R,12S,13S,14R)-2-ethyl-3,4,10-trihydroxy-13-(((2R,4R,5S,6S)-5-hydroxy-4-methoxy-4,6-dimethyl-5-((propylamino)methyl)tetrahydro-2H-pyran-2-yl)oxy)-3,5,8,10,12,14-hexamethyl-15-oxo-1-oxa-6-azacyclopentadecan-11-yl)oxy)-3-hydroxy-6-methyltetrahydro-2H-pyran-4-yl)-1,3-dimethylurea]",26,52,> 64,40
"CCCNC[C@]1(O)[C@H](C)O[C@@H](O[C@H]2[C@H](C)[C@@H](O[C@@H]3O[C@H](C)C[C@H](N(C)C(=O)N(C)c4nccnn4)[C@H]3O)[C@](C)(O)C[C@@H](C)CN[C@H](C)[C@@H](O)[C@](C)(O)[C@@H](CC)OC(=O)[C@@H]2C)C[C@@]1(C)OC [Example H-56, 1-((2S,3R,4S,6R)-2-(((2R,3S,4R,5R,8R,10R,11R,12S,13S,14R)-2-ethyl-3,4,10-trihydroxy-13-(((2R,4R,5S,6S)-5-hydroxy-4-methoxy-4,6-dimethyl-5-((propylamino)methyl)tetrahydro-2H-pyran-2-yl)oxy)-3,5,8,10,12,14-hexamethyl-15-oxo-1-oxa-6-azacyclopentadecan-11-yl)oxy)-3-hydroxy-6-methyltetrahydro-2H-pyran-4-yl)-1,3-dimethyl-3-(1,2,4-triazin-3-yl)urea]",79,6,> 64,18
"CCCNC[C@]1(O)[C@H](C)O[C@@H](O[C@H]2[C@H](C)[C@@H](O[C@@H]3O[C@H](C)C[C@H](N(C)C(=O)N(C)c4ccncc4)[C@H]3O)[C@](C)(O)C[C@@H](C)CN[C@H](C)[C@@H](O)[C@](C)(O)[C@@H](CC)OC(=O)[C@@H]2C)C[C@@]1(C)OC [Example H-59, 1-((2S,3R,4S,6R)-2-(((2R,3S,4R,5R,8R,10R,11R,12S,13S,14R)-2-ethyl-3,4,10-trihydroxy-13-(((2R,4R,5S,6S)-5-hydroxy-4-methoxy-4,6-dimethyl-5-((propylamino)methyl)tetrahydro-2H-pyran-2-yl)oxy)-3,5,8,10,12,14-hexamethyl-15-oxo-1-oxa-6-azacyclopentadecan-11-yl)oxy)-3-hydroxy-6-methyltetrahydro-2H-pyran-4-yl)-1,3-dimethyl-3-(pyridin-4-yl)urea]",9,30,> 64,16
"CCCNC[C@]1(O)[C@H](C)O[C@@H](O[C@H]2[C@H](C)[C@@H](O[C@@H]3O[C@H](C)C[C@H](N(C)C(=O)N(C)c4ccncc4C)[C@H]3O)[C@](C)(O)C[C@@H](C)CN[C@H](C)[C@@H](O)[C@](C)(O)[C@@H](CC)OC(=O)[C@@H]2C)C[C@@]1(C)OC [Example H-62, 1-((2S,3R,4S,6R)-2-(((2R,3S,4R,5R,8R,10R,11R,12S,13S,14R)-2-ethyl-3,4,10-trihydroxy-13-(((2R,4R,5S,6S)-5-hydroxy-4-methoxy-4,6-dimethyl-5-((propylamino)methyl)tetrahydro-2H-pyran-2-yl)oxy)-3,5,8,10,12,14-hexamethyl-15-oxo-1-oxa-6-azacyclopentadecan-11-yl)oxy)-3-hydroxy-6-methyltetrahydro-2H-pyran-4-yl)-1,3-dimethyl-3-(3-methylpyridin-4-yl)urea]",1,1,> 64,<1
"CCCNC[C@]1(O)[C@H](C)O[C@@H](O[C@H]2[C@H](C)[C@@H](O[C@@H]3O[C@H](C)C[C@H](N(Cc4nccs4)C(=O)N(C)c4ccccc4)[C@H]3O)[C@](C)(O)C[C@@H](C)CN[C@H](C)[C@@H](O)[C@](C)(O)[C@@H](CC)OC(=O)[C@@H]2C)C[C@@]1(C)OC [Example H-64, 1-((2S,3R,4S,6R)-2-(((2R,3S,4R,5R,8R,10R,11R,12S,13S,14R)-2-ethyl-3,4,10-trihydroxy-13-(((2R,4R,5S,6S)-5-hydroxy-4-methoxy-4,6-dimethyl-5-((propylamino)methyl)tetrahydro-2H-pyran-2-yl)oxy)-3,5,8,10,12,14-hexamethyl-15-oxo-1-oxa-6-azacyclopentadecan-11-yl)oxy)-3-hydroxy-6-methyltetrahydro-2H-pyran-4-yl)-3-methyl-3-phenyl-1-(thiazol-2-ylmethyl)urea]",28,28,> 64,16

# More lines, main results first:
IC50 [2] [µM],IC50 [4] [µM],SMILES,MIC [1] [µg/mL],IL-1β OS of LPS [3] [µM]
9,6,"CCCNC[C@]1(O)[C@H](C)O[C@@H](O[C@H]2[C@H](C)[C@@H](O[C@@H]3O[C@H](C)C[C@H](N(Cc4ccccc4)C(=O)N(C)c4ccccc4)[C@H]3O)[C@](C)(O)C[C@@H](C)CN[C@H](C)[C@@H](O)[C@](C)(O)[C@@H](CC)OC(=O)[C@@H]2C)C[C@@]1(C)OC [Example H-65, 1-benzyl-1-((2S,3R,4S,6R)-2-(((2R,3S,4R,5R,8R,10R,11R,12S,13S,14R)-2-ethyl-3,4,10-trihydroxy-13-(((2R,4R,5S,6S)-5-hydroxy-4-methoxy-4,6-dimethyl-5-((propylamino)methyl)tetrahydro-2H-pyran-2-yl)oxy)-3,5,8,10,12,14-hexamethyl-15-oxo-1-oxa-6-azacyclopentadecan-11-yl)oxy)-3-hydroxy-6-methyltetrahydro-2H-pyran-4-yl)-3-methyl-3-phenylurea]",> 64,2
56,92,"CCCNC[C@]1(O)[C@H](C)O[C@@H](O[C@H]2[C@H](C)[C@@H](O[C@@H]3O[C@H](C)C[C@H](N(C)C(=O)Nc4cccc(Cl)c4)[C@H]3O)[C@](C)(O)C[C@@H](C)CN[C@H](C)[C@@H](O)[C@](C)(O)[C@@H](CC)OC(=O)[C@@H]2C)C[C@@]1(C)OC [Example H-88, 3-(3-chlorophenyl)-1-((2S,3R,4S,6R)-2-(((2R,3S,4R,5R,8R,10R,11R,12S,13S,14R)-2-ethyl-3,4,10-trihydroxy-13-(((2R,4R,5S,6S)-5-hydroxy-4-methoxy-4,6-dimethyl-5-((propylamino)methyl)tetrahydro-2H-pyran-2-yl)oxy)-3,5,8,10,12,14-hexamethyl-15-oxo-1-oxa-6-azacyclopentadecan-11-yl)oxy)-3-hydroxy-6-methyltetrahydro-2H-pyran-4-yl)-1-methylurea]",> 64,13
8,11,"CCCNC[C@]1(O)[C@H](C)O[C@@H](O[C@H]2[C@H](C)[C@@H](O[C@@H]3O[C@H](C)C[C@H](N(C)C(=O)N(C)c4ccccc4)[C@H]3O)[C@](C)(O)C[C@@H](C)CN(CCC)[C@H](C)[C@@H](O)[C@](C)(O)[C@@H](CC)OC(=O)[C@@H]2C)C[C@@]1(C)OC [Example H-102, 1-((2S,3R,4S,6R)-2-(((2R,3S,4R,5R,8R,10R,11R,12S,13S,14R)-2-ethyl-3,4,10-trihydroxy-13-(((2R,4R,5S,6S)-5-hydroxy-4-methoxy-4,6-dimethyl-5-((propylamino)methyl)tetrahydro-2H-pyran-2-yl)oxy)-3,5,8,10,12,14-hexamethyl-15-oxo-6-propyl-1-oxa-6-azacyclopentadecan-11-yl)oxy)-3-hydroxy-6-methyltetrahydro-2H-pyran-4-yl)-1,3-dimethyl-3-phenylurea]",> 64,8
5,4,"CCCNC[C@]1(O)[C@H](C)O[C@@H](O[C@H]2[C@H](C)[C@@H](O[C@@H]3O[C@H](C)C[C@H](N(C)C(=O)N(C)c4ccc(C(F)(F)F)cc4)[C@H]3O)[C@](C)(O)C[C@@H](C)CN(CCC)[C@H](C)[C@@H](O)[C@](C)(O)[C@@H](CC)OC(=O)[C@@H]2C)C[C@@]1(C)OC [Example H-103, 1-((2S,3R,4S,6R)-2-(((2R,3S,4R,5R,8R,10R,11R,12S,13S,14R)-2-ethyl-3,4,10-trihydroxy-13-(((2R,4R,5S,6S)-5-hydroxy-4-methoxy-4,6-dimethyl-5-((propylamino)methyl)tetrahydro-2H-pyran-2-yl)oxy)-3,5,8,10,12,14-hexamethyl-15-oxo-6-propyl-1-oxa-6-azacyclopentadecan-11-yl)oxy)-3-hydroxy-6-methyltetrahydro-2H-pyran-4-yl)-1,3-dimethyl-3-(4-(trifluoromethyl)phenyl)urea]",> 64,3
20,45,"CC[C@H]1OC(=O)[C@H](C)[C@@H](O[C@H]2C[C@@](C)(OC)[C@](O)(CN3CCOCC3)[C@H](C)O2)[C@H](C)[C@@H](O[C@@H]2O[C@H](C)C[C@H](N(C)C(=O)N(C)c3ccccc3)[C@H]2O)[C@](C)(O)C[C@@H](C)CN[C@H](C)[C@@H](O)[C@]1(C)O [Example J-10, 1-((2S,3R,4S,6R)-2-(((2R,3S,4R,5R,8R,10R,11R,12S,13S,14R)-2-ethyl-3,4,10-trihydroxy-13-(((2R,4R,5S,6S)-5-hydroxy-4-methoxy-4,6-dimethyl-5-(morpholinomethyl)tetrahydro-2H-pyran-2-yl)oxy)-3,5,8,10,12,14-hexamethyl-15-oxo-1-oxa-6-azacyclopentadecan-11-yl)oxy)-3-hydroxy-6-methyltetrahydro-2H-pyran-4-yl)-1,3-dimethyl-3-phenylurea]",> 64,40

# Source: patent US12295936B2, “Immunomodulating urea azalides” (Zoetis Services LLC, priority 2020, dated 2025)
